Where two headings read alike, the source gives them in different places.
Assays:
Type in all cases: cell-based
[1] = system: human adult peripheral blood; assay: Adult whole blood assay, TNF / IL-1β ELISA; details: mean, n = 4-9; for EC50: Homo sapiens
human neonatal MoDCs = assay: Neonatal monocyte-derived dendritic cell (MoDC) stimulation, TNF ELISA; details: 24 h
Text: Heparinized human newborn cord blood or adult peripheral blood was layered onto Ficoll-Hypaque gradients (Ficoll-Paque PREMIUM, GE Healthcare, Waukesha, WI) to collect CBMC or peripheral blood mononuclear cell layers (PBMC), respectively. Monocytes were isolated from mononuclear cell fractions by positive selection by magnetic microbeads according to the manufacturer’s instructions (Miltenyi Biotec, Auburn, CA) using CD14 or CD33 as a pan-marker for monocytes. Monocyte preparations were >95% pure as assessed by flow cytometry for CD14 as previously described. […] After 5–6 days, immature MoDCs (HLA-DR^+, CD14^−, DC-SIGN^+ as measured by flow cytometry) of >90% purity were harvested by gently pipetting only the loosely adherent fraction and re-plated (10^5 cells/well) in 96-well U-bottom plates in the presence or absence of TLR agonists.
Following TLR agonist stimulation, MoDCs were resuspended in staining buffer (1×PBS, 0.5% human serum albumin (HSA)) and stained for 30 min at 4°C in the dark (1.5×10^5/per staining) with fluorophore-labeled antibodies (FITC/HLA-DR and PE/CD86) (BD Biosciences). Cells were then centrifuged, washed, fixed (1% paraformaldehyde (PFA)) and filtered prior to flow cytometry analysis using a MoFlo Legacy cytometer (DakoCytomation, Fort Collins, CO) and analyzed using FlowJo software (Tree Star). […]

human newborn cord blood [2] = assay: Newborn whole blood assay, TNF / IL-1β ELISA; details: for Newborn WBA IL-1β / Newborn WBA TNF: baseline subtracted
Text: (§1) Peripheral blood was collected from healthy adult volunteers, while human newborn cord blood was collected immediately after Cesarean section delivery of the placenta. Births to HIV-positive mothers were excluded. Human experimentation guidelines of the U.S. Department of Health and Human Services, The Brigham & Women’s Hospital, and Boston Children’s Hospital were observed, following protocols approved by the local institutional review boards. Human blood was anti-coagulated with 15–20 units/ml pyrogen-free sodium heparin (American Pharmaceutical Partners, Inc., Schaumberg, IL). All blood products were kept at room temperature and processed within 4 hrs of collection.
(§2) For assessment of TLR agonist activity in whole blood, we used an adaptation of the method of Kollmann et al., [33]. […] Suspensions containing 200 µl/well were gently mixed by pipetting and incubated for 2–24 h at 37°C in a humidified incubator at 5% CO2. After culture, plates were centrifuged at 500×g and 110–150 µl of supernatant was carefully removed by pipetting without disturbing the cell pellet. Supernatants derived from human leukocyte stimulations were assayed by ELISA for TNF (BD Biosciences, San Jose, CA, USA) and IL-1β (eBiosciences, San Diego, CA). Additionally, WB supernatants were analysed by Multi-Analyte Profiling (MAP). Briefly, supernatant samples were frozen at −80°C and submitted to Myriad RBM (Austin, TX, USA) for screening with a modified Human InflammationMAP® v. 1.6 antigen panel, which analyzed the samples for the presence of 98 analytes associated with inflammation. The minimum threshold for each analyte was set at the minimum detectable dose for that particular assay (defined as three standard deviations above the mean background).
(§3) Compound concentrations are shown in µM, except for MPLA, which are shown in ng/ml. Data are shown as mean ± SEM of n = 5–8.

[3] = system: human adult peripheral blood; assay: Adult whole blood assay, TNF / IL-1β ELISA; details: baseline subtracted
Text: as §1, §2, §3

human newborn cord blood [4] = assay: Newborn whole blood assay, TNF / IL-1β ELISA; details: mean, n = 4-9

monophosphoryl lipid A [MPLA]
Adult WBA IL-1β EC50 [1]: 0.00159 µg/mL
Adult WBA TNF EC50 [1]: 0.01259 µg/mL
lowest concentration inducing MoDC TNF production (p<0.05 vs unstimulated) (human neonatal MoDCs; tested 1, 10, 100 ng/ml): 10 ng/mL
Newborn WBA IL-1β (human newborn cord blood [2]; agonist 0.1 ng/ml): 0 pg/mL
Newborn WBA TNF (human newborn cord blood [2]; agonist 0.1 ng/ml): 0 pg/mL
Newborn WBA IL-1β (human newborn cord blood [2]; agonist 0.3 ng/ml): 0 pg/mL
Newborn WBA TNF (human newborn cord blood [2]; agonist 0.3 ng/ml): 11 pg/mL
Newborn WBA IL-1β (human newborn cord blood [2]; agonist 1 ng/ml): 24 pg/mL
Newborn WBA TNF (human newborn cord blood [2]; agonist 1 ng/ml): 29 pg/mL
Newborn WBA IL-1β (human newborn cord blood [2]; agonist 10 ng/ml): 682 pg/mL
Newborn WBA TNF (human newborn cord blood [2]; agonist 10 ng/ml): 642 pg/mL
Newborn WBA IL-1β (human newborn cord blood [2]; agonist 100 ng/ml): 1628 pg/mL
Newborn WBA TNF (human newborn cord blood [2]; agonist 100 ng/ml): 3665 pg/mL
Adult WBA IL-1β ([3]; agonist 0.1 ng/ml): 5 pg/mL
Adult WBA TNF ([3]; agonist 0.1 ng/ml): 128 pg/mL
Adult WBA IL-1β ([3]; agonist 0.3 ng/ml): 27 pg/mL
Adult WBA TNF ([3]; agonist 0.3 ng/ml): 33 pg/mL
Adult WBA IL-1β ([3]; agonist 1 ng/ml): 95 pg/mL
Adult WBA TNF ([3]; agonist 1 ng/ml): 215 pg/mL
Adult WBA IL-1β ([3]; agonist 10 ng/ml): 763 pg/mL
Adult WBA TNF ([3]; agonist 10 ng/ml): 3353 pg/mL
Adult WBA IL-1β ([3]; agonist 100 ng/ml): 3153 pg/mL
Adult WBA TNF ([3]; agonist 100 ng/ml): 9158 pg/mL
Newborn WBA IL-1β EC50 (human newborn cord blood [4]): 0.01148 µg/mL
Newborn WBA TNF EC50 (human newborn cord blood [4]): 0.01457 µg/mL

CCOCc1nc2c(N)nc3ccccc3c2n1CC(C)(C)O [R848]
EC50 ([1]; read-out: Adult WBA IL-1β EC50): 1.62 µM
EC50 ([1]; read-out: Adult WBA TNF EC50): 1.04 µM
lowest concentration inducing MoDC TNF production (human neonatal MoDCs; tested 0.1, 0.3, 10 µM): 10 µM
EC50 (human newborn cord blood [2]; Homo sapiens, mean, n = 4-9, read-out: Newborn WBA IL-1β EC50): 6.65 µM
Newborn WBA IL-1β (human newborn cord blood [2]; agonist 0.1 μM): 0 pg/mL
Newborn WBA TNF (human newborn cord blood [2]; agonist 0.1 μM): 0 pg/mL
Newborn WBA IL-1β (human newborn cord blood [2]; agonist 0.3 μM): 9 pg/mL
Newborn WBA TNF (human newborn cord blood [2]; agonist 0.3 μM): 0 pg/mL
Newborn WBA IL-1β (human newborn cord blood [2]; agonist 1 μM): 285 pg/mL
Newborn WBA TNF (human newborn cord blood [2]; agonist 1 μM): 2164 pg/mL
Newborn WBA IL-1β (human newborn cord blood [2]; agonist 10 μM): 7442 pg/mL
Newborn WBA TNF (human newborn cord blood [2]; agonist 10 μM): 33609 pg/mL
Newborn WBA IL-1β (human newborn cord blood [2]; agonist 100 μM): 10822 pg/mL
Newborn WBA TNF (human newborn cord blood [2]; agonist 100 μM): 20117 pg/mL
Adult WBA IL-1β ([3]; agonist 0.1 μM): 2 pg/mL
Adult WBA TNF ([3]; agonist 0.1 μM): 132 pg/mL
Adult WBA IL-1β ([3]; agonist 0.3 μM): 27 pg/mL
Adult WBA TNF ([3]; agonist 0.3 μM): 750 pg/mL
Adult WBA IL-1β ([3]; agonist 1 μM): 779 pg/mL
Adult WBA TNF ([3]; agonist 1 μM): 6661 pg/mL
Adult WBA IL-1β ([3]; agonist 10 μM): 4762 pg/mL
Adult WBA TNF ([3]; agonist 10 μM): 13913 pg/mL
Adult WBA IL-1β ([3]; agonist 100 μM): 4694 pg/mL
Adult WBA TNF ([3]; agonist 100 μM): 9982 pg/mL
EC50 (human newborn cord blood [4]; Homo sapiens, read-out: Newborn WBA TNF EC50): 1.5 µM
